# Counter-ions that a name gives are not always drawn. Non-standard residues stand in square brackets, D forms with d. Residues, ends and D or L forms follow the SMILES beside them. Dopa = N[C@@H](Cc1ccc(O)c(O)c1)C(=O)O
# Columns and labels:
# [1] = LD-Arg, LD-Lys and LD-Tyr formulations of Experimental Example 12, physical stability (Tables 35-41); type: physicochemical; conditions: for Physical Stability: room temperature overnight
# Description: Formulations as described in the tables below were prepared by adding a CD solution and dissolving all ingredients together. The CD for the LD-Arg formulation was prepared as follows: WFI was added to a bottle, after which Tween® 80 and sodium bisulfite were added, stirred to dissolution, and heated to 60° C. CD was added, stirred for 1-2 minutes to achieve homogenization. Finally, L-Arginine was added, the bottle was flushed with nitrogen, tightly closed and stirred 15 min. Dissolution was verified and the preparation was allowed to cool to ambient temperature. The pH was measured, and the preparation was transferred to a measurement bottle, where the volume was completed to the predefined final volume by adding WFI. The preparation was then filtered through sterile 0.22 μm nylon filter, transferred to 20 ml vials, after which nitrogen was purged into the headspace and the vials were frozen at −20° C. until use.
# The CD solution for the LD-Tyr and LD-Lys formulations was prepared as follows: WFI was added to a bottle. Tween® 80 and sodium bisulfite were added, stirred to dissolution and heated to 60° C. CD was added, and stirred for 1-2 minutes to achieve homogenization. NaOH was added, after which the bottle was washed with nitrogen, closed tightly and stirred for 15 minutes. Dissolution was verified and the preparation was allowed to cool to ambient temperature. The pH was measured, and preparation was transferred to a measurement bottle, in which the volume was completed to final predefined volume by adding WFI. The preparation was then filtered through a sterile 0.22 μm nylon filter, transferred to 20 ml vials, after which nitrogen was purged into headspace and the vials were frozen at −20° C. until use.
# [2] = Stability observation of the solubility solutions at 25° C. (visual inspection for precipitants); type: physicochemical; conditions: 0.75% CD solution
# Description: The volume of the solution in the bottle was adjusted to 5 ml, either by adding solvent, or be removing any residual solution, after which the bottle was tightly closed and left at 25° C. for stability observation. […] It is further noted that throughout this document, unless mentioned otherwise, the stability was measured using the manual visual inspection Bosch apparatus MIH DX, at a magnification of ×1.75.
# [3] = t = 12 days, LD-Tyr 37.0%, CD 0.75%, L-Arginine 6.00, NaOH 0, TRIS 13, pH 8.14
# [4] = t = 14 days, LD-Tyr 44.0%, CD 0.75%, L-Arginine 25.70, NaOH 0, TRIS 0, pH 8.34
# [5] = t = 26 days, LD-Tyr 37.0%, CD 0.75%, L-Arginine 6.00, NaOH 0, TRIS 12.124, pH 8.12
# [6] = t = 26 days, LD-Tyr 44.0%, CD 0.75%, L-Arginine 6.76, NaOH 0, TRIS 13.726, pH 8.08
compound,measurement,setting,value
"N[C@@H](Cc1ccc(O)c(O)c1)C(=O)N[C@@H](Cc1ccc(O)cc1)C(=O)O [LD-Tyr TFA salt, Levodopa Tyrosine TFA Salt] (H-[Dopa]-Tyr-OH)",Physical Stability,"[1]; LD-Tyr 20%, Arg 0%, TRIS 8.8%, pH 7.94, molar ratio 1:1.20",Precipitated
same,Physical Stability,"[1]; LD-Tyr 30%, Arg 4.5%, TRIS 9.72%, pH 8.00, molar ratio 1:1.20",Stable
same,Physical Stability,"[1]; LD-Tyr 37%, Arg 5.8%, TRIS 11.7%, pH 8.12, molar ratio 1:1.32",Stable
same,Physical Stability,"[1]; LD-Tyr 44%, Arg 6.8%, TRIS 13.8%, pH 8.02, molar ratio 1:1.20",Stable
same,Physical Stability,"[1]; LD-Tyr 44%, Arg 7.33%, TRIS 14.9%, pH 8.08, molar ratio 1:1.30",Stable
same,"Appearance, 25° C.","[1]; t = 1 days, LD-Tyr 44.0%, CD 0%, L-Arginine 21.4, NaOH 0.60, TRIS 0, pH 8.29",Stable
same,"Appearance, Refrigerated (2-8° C.)","[1]; t = 1 days, LD-Tyr 44.0%, CD 0.75%, L-Arginine 6.27, NaOH 0, TRIS 12.69, pH 8.02",Stable
same,"Appearance, 25° C.","[1]; t = 3 days, LD-Tyr 44.0%, CD 0.75%, L-Arginine 6.27, NaOH 0, TRIS 12.69, pH 8.02",Stable
same,"Appearance, Refrigerated (2-8° C.)","[1]; t = 7 days, LD-Tyr 44.0%, CD 0.75%, L-Arginine 8.00, NaOH 0, TRIS 15, pH 8.15",Stable
same,"Appearance, 25° C.",[1]; [3],Stable
same,"Appearance, Refrigerated (2-8° C.)",[1]; [3],Stable
same,"Appearance, 25° C.","[1]; t = 12 days, LD-Tyr 44.0%, CD 0.75%, L-Arginine 21.4, NaOH 0.60, TRIS 0, pH 8.29",Stable
same,"Appearance, 25° C.","[1]; t = 14 days, LD-Tyr 44.0%, CD 0.75%, L-Arginine 8.00, NaOH 0, TRIS 15, pH 8.15",Stable
same,"Appearance, 25° C.",[1]; [4],Stable
same,"Appearance, Refrigerated (2-8° C.)",[1]; [4],Stable
same,"Appearance, 25° C.","[1]; t = 24 days, LD-Tyr 44.0%, CD 0.75%, L-Arginine 21.86, NaOH 0.60, TRIS 0, pH 8.57",Stable
same,"Appearance, 25° C.",[1]; [5],Stable
same,"Appearance, Refrigerated (2-8° C.)",[1]; [5],Stable
same,"Appearance, 25° C.",[1]; [6],Stable
same,"Appearance, Refrigerated (2-8° C.)",[1]; [6],Stable
same,"Appearance, 25° C.","[1]; t = 27 days, LD-Tyr 44.0%, CD 0.75%, L-Arginine 25.72, NaOH 0, TRIS 0, pH 8.43",Stable
same,"Appearance, Refrigerated (2-8° C.)","[1]; t = 44 days, LD-Tyr 30.0%, CD 0.75%, L-Arginine 7.00, NaOH 0, TRIS 10.5, pH 8.23",precipitated
same,"Appearance, Refrigerated (2-8° C.)","[1]; t = 50 days, LD-Tyr 30.0%, CD 0.75%, L-Arginine 18.10, NaOH 0, TRIS 0, pH 8.36",Stable
same,"Appearance, Refrigerated (2-8° C.)","[1]; t = 56 days, LD-Tyr 44.0%, CD 0.75%, L-Arginine 21.86, NaOH 0.60, TRIS 0, pH 8.57",Stable
same,"Appearance, 25° C.","[1]; t = 70 days, LD-Tyr 38.0%, CD 0%, L-Arginine 21.90, NaOH 0, TRIS 0, pH 8.43",Stable
same,"Appearance, Refrigerated (2-8° C.)","[1]; t = 70 days, LD-Tyr 44.0%, CD 0.75%, L-Arginine 25.72, NaOH 0, TRIS 0, pH 8.43",Stable
"NCCCC[C@H](NC(=O)[C@@H](N)Cc1ccc(O)c(O)c1)C(=O)O [LD-Lys TFA salt, Levodopa Lysine TFA Salt] (H-[Dopa]-Lys-OH)",Stability,"[2]; pH 6.5, 250 mg/ml salt",Precipitated* (precipitated within 12 hours)
same,Stability,"[2]; pH 7.4, 250 mg/ml salt",Precipitated* (precipitated within 12 hours)
